Assay results taken from US20130137767A1, “Methods and Compositions for Treating Arthritis with Docosahexaenoic Acid” (DSM IP ASSETS B.V., priority 2010, published 2013).

Tests used:
Type in all cases: in vivo, Male DBA/1O1aHsd mice
[1] = system: Collagen-Induced Arthritis (CIA); test: Collagen-Induced Arthritis, ethyl esters (CIA-EE, Example 1): clinical arthritis severity and incidence; details: for arthritis severity score / arthritis severity score as area under the curve (AUC): days 18-45; for arthritis severity score as area under the curve (AUC): FIG. 2
Text: The anti-arthritic activity of DHA, DPAn6, DHA/DPAn6 (DHA S-oil ratio) and DHA/EPA (fish oil ratio) ethyl esters (EE) in a chronic mouse model of inflammation, Collagen-Induced Arthritis (CIA), was studied.
Male DBA/1O1aHsd mice (3.5-4 weeks of age) were randomized by weight and enrolled in the study after a three day quarantine in which animals were fed the AlN-93G diet with a modified base fat: 1 part flax seed oil (flax), 9 parts hydrogenated coconut oil (HCOC) and 21 parts high-oleic safflower oil (HO-SAFF). 15 animals were enrolled per study group, with the exception of the No Disease control that had 4 animals. Study groups consisted of:
The appropriate ethyl esters were blended into the base diet to provide approximately 2500 and 5000 mg/kg polyunsaturated fatty acid (PUFA) per day. The human equivalent doses (HED) were approximately 12 g/day and 22 g/day, respectively. The 2500 mg/kg EE diets contained the following fat blend: 1 part flax, 12 parts HCOC and 23 parts HO-SAFF. The 5000 mg/kg EE diets contained a fat blend consisting of: 1 part flax, 5 parts HCOC and 20 parts HO-SAFF. All study diets provided a total of 7% fat. Animals were fed study diets for approximately 30 days prior to the first collagen injection at day 0 and remained on the diets until study termination (day 45). Animals in the No Disease control and Dexamethasone groups were fed the diet containing OA-EE. Following a second collagen injection on day 21, arthritis severity was scored daily. Blood samples were collected at day 21 and day 45. Joints, 6 per an animal, were collected for histology and pathology on day 45.
Data was analyzed and compared by one-way ANOVA using the Bonferroni post-test to compare treatment groups to respective placebo control and to make comparisons between treatment groups (GraphPad, Prism, Version 4.0). Effects were considered to be statistically significant at p<0.05.
Arthritis severity was assessed from day 18 to 45; a score of 0 represented an animal devoid of clinical arthritis symptoms and a score of 5 represented advanced clinical arthritis. Scores from 0-5 (most severe) were assigned to each digit on the fore and hind limbs based on erythema, swelling and mobility and the mean arthritis severity per animal was determined.
The incidence of disease was reduced in animals treated with DHA-EE (FIG. 3A/B). A clinical arthritis score greater than 0 was considered diseased. The incidence of disease at day 45 was 13% in animals treated with 2500 mg/kg DHA-EE, as compared to 100% disease incidence in OA-EE (placebo) control animals.

[2] = CIA EE vs. TG (Example 2): serum phospholipid fatty acid levels by FAME analysis
Procedure: (§1) Male DBA/1O1aHsd mice were enrolled, quarantined, and feed study diets following the protocols described in Example 1 (CIA-EE Study). EE and TG oils were blended into the base diet to provide 2500 mg/kg PUFA per day (HED approximately 12 g/day). A single dose of PUFA per day (HED approximately 5 g/day). The 1000 mg/kg DHA-EE dose was equivalent to the amount of DHA administered in the DHA/EPA-EE blend. The fat blend the 2500 mg/kg EE diets consisted of approximately: 1 part flax, 12 parts HCOC and 23 parts HO-SAFF; 1000 mg/kg EE diet: 1 part flax, 12 parts HCOC and 32 parts HO-SAFF; 2500 mg/kg DHASCO® oil diet: 1 part flax, 8 parts HCOC, 17 parts HO-SAFF and 15 parts soybean oil; 2500 mg/kg DHA-S oil diet: 1 part flax, 5 parts HCOC, 16 parts HO-SAFF and 6 parts soybean oil. 2500 mg/kg DHA/EPA (Nordic Naturals fish oil) diet: 1 part flax, 21 parts HCOC, 18 parts HO-SAFF and 13 parts soybean oil. The monounsaturate control animals received a fat blend of 1 part flax, 7 parts HCOC and 25 parts HO-SAFF. All study diets provided a total of 7% fat. Animals in the No Disease control and Dexamethasone groups were fed the diet containing OA-EE. Mice received collagen injections on day 0 and day 21, as described previously. Blood samples were collected at day 21 and day 45. At day 45, joints were collected for histology and pathology.
Serum phospholipid fatty acid levels were determined by FAME analysis (FIG. 11). Treatment with DHASCO® or DHA-S oil elevated serum DHA levels 3-4 fold (p<0.001), as compared to the monounsaturated (placebo) control. DHA-EE treatment elevated DHA levels 3-5 fold (p<0.001), as compared to the OA-EE (placebo) control. DPAn6-TG and EE elevated DPAn6 levels 3-4 fold (p<0.001), as compared to the monounsaturated or OA-EE (placebo) control. Serum EPA levels were elevated approximately 30 fold (p<0.001) when fish oil or DHA/EPA-EE was administered, as compared to the monounsaturated or OA-EE (placebo) control. Serum EPA levels were also elevated by treatment with DHASCO® (p<0.001), DHA-S (p<0.05), or with DHA-EE (p<0.001), as compared to the monounsaturated or OA-EE (placebo) control. […] Treatment with either DHASCO® or DHA-EE (2500 mg/kg) reduced ARA levels by approximately 90% (p<0.001), as compared to the monounsaturated or OA-EE (placebo) control. […] Serum ARA levels were reduced to a lesser degree by DHA-S (24%, p<0.001), fish oil (37%, p<0.001) and DHA/EPA-EE (49%, p<0.001), as compared to the monounsaturated or OA-EE (placebo) control. Data shown represents 3 pooled animals per group. Means±SD. *p<0.05 ***p<0.001.

[3] = system: anti-collagen antibodies; test: CIA EE vs. TG (Example 2): serum anti-collagen antibodies; details: for serum anti-collagen antibodies: day 21
Procedure: as §1
A reduction in serum anti-collagen antibodies also correlated with a reduction in disease severity. […] (FIG. 12).

serum EPA levels, elevation vs monounsaturated or OA-EE (placebo) control ([2]; 2500 mg/kg PUFA (DHA-EE dose not stated)): elevated
serum DHA levels, elevation vs OA-EE (placebo) control ([2]; dose not stated (1000 and 2500 mg/kg tested)): 3-5 fold
Structure (SMILES): CC/C=C\C/C=C\C/C=C\C/C=C\C/C=C\C/C=C\CCC(=O)OCC [DHA-EE]
arthritis severity score ([1]; 2500 mg/kg in diet, FIG. 1A): reduced arthritis severity
arthritis severity score as area under the curve (AUC) ([1]; 2500 mg/kg, vs 2500 mg/kg OA-EE (placebo) control): significantly reduced arthritis severity
arthritis severity, comparison between treatment groups ([1]; 5000 mg/kg): more potent than DHA/EPA-EE
arthritis severity score ([1]; 5000 mg/kg in diet, FIG. 1B): reduced arthritis severity
arthritis severity score as area under the curve (AUC) ([1]; 5000 mg/kg, vs 5000 mg/kg OA-EE (placebo) control): significantly reduced arthritis severity
incidence of disease (clinical arthritis score greater than 0) ([1]; day 45, 2500 mg/kg, FIG. 3A): 13%
arthritis severity, comparison with dexamethasone ([1]; dose not stated in sentence (2500 and 5000 mg/kg tested), dexamethasone 0.1 mg/kg): as effective as dexamethasone
serum ARA levels, reduction vs OA-EE (placebo) control ([2]; 1000 mg/kg): 77%
serum ARA levels, reduction vs monounsaturated or OA-EE (placebo) control ([2]; 2500 mg/kg PUFA): approximately 90%
serum anti-collagen antibodies ([3]; 1000 mg/kg): significantly reduced
serum anti-collagen antibodies ([3]; 2500 mg/kg PUFA, FIG. 12): significantly reduced
serum anti-collagen antibody levels ([3]; day 45, 2500 mg/kg PUFA, FIG. 12): significantly reduced
